In PubChem BioAssay (NCI):
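Each compound was tested at five concentrations against cells in 96-well plates for 48 hours. TGI: total growth inhibition.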

Legend:
Test in all cases: growth of human tumour cells (NCI), 48 h
[1] = test system: 786-0 renal
[2] = test system: A498 renal
[3] = test system: A549 NSCLC
[4] = test system: ACHN renal
[5] = test system: CAKI-1 renal
[6] = test system: CCRF-CEM leukemia
[7] = test system: COLO 205 colon
[8] = test system: DLD-1 colon
[9] = test system: DMS 114 small cell lung
[10] = test system: DMS 273 small cell lung
[11] = test system: EKVX NSCLC
[12] = test system: HCC-2998 colon
[13] = test system: HCT-116 colon
[14] = test system: HCT-15 colon
[15] = test system: HL-60(TB) leukemia
[16] = test system: HOP-18 NSCLC
[17] = test system: HOP-62 NSCLC
[18] = test system: HOP-92 NSCLC
[19] = test system: HT29 colon
[20] = test system: IGROV1 ovarian
[21] = test system: K-562 leukemia
[22] = test system: KM12 colon
[23] = test system: KM20L2 colon
[24] = test system: LOX IMVI melanoma
[25] = test system: LXFL 529 NSCLC
[26] = test system: M14 melanoma
[27] = test system: M19-MEL melanoma
[28] = test system: MALME-3M melanoma
[29] = test system: MOLT-4 leukemia
[30] = test system: NCI-H226 lung
[31] = test system: NCI-H23 lung
[32] = test system: NCI-H460 lung
[33] = test system: NCI-H522 lung
[34] = test system: OVCAR-3 ovarian
[35] = test system: OVCAR-4 ovarian
[36] = test system: OVCAR-5 ovarian
[37] = test system: OVCAR-8 ovarian
[38] = test system: RPMI-8226 leukemia
[39] = test system: SF-268 CNS
[40] = test system: SF-295 CNS
[41] = test system: SF-539 CNS
[42] = test system: SK-MEL-2 melanoma
[43] = test system: SK-MEL-28 melanoma
[44] = test system: SK-MEL-5 melanoma
[45] = test system: SK-OV-3 ovarian
[46] = test system: SN12C renal
[47] = test system: SNB-19 CNS
[48] = test system: SNB-75 CNS
[49] = test system: SNB-78 CNS
[50] = test system: SR leukemia
[51] = test system: SW-620 colon
[52] = test system: TK-10 renal
[53] = test system: U251 CNS
[54] = test system: UACC-257 melanoma
[55] = test system: UACC-62 melanoma
[56] = test system: UO-31 renal

Question: Which TGI [1] does the source give for CC(=O)OC1CC2C(C)(C)C(=O)C=C[C@]2(C)C2CCC3(C)C(c4ccoc4)C(=O)C4OC43[C@]12C (stereo partly specified) here?
Answer: 69.3 µM

Question: What about the TGI [2] of the same compound?
Answer: 42.5 µM

Question: And the TGI [3]?
Answer: 46 µM

Question: What about the TGI [4] of the same compound?
Answer: 85 µM

Question: And the TGI [5]?
Answer: > 100 µM

Question: And the TGI [6]?
Answer: 58.3 µM

Question: What about the TGI [7] of the same compound?
Answer: 34.2 µM

Question: And the TGI [8]?
Answer: 34 µM

Question: And the TGI [9]?
Answer: 33.3 µM

Question: What about the TGI [10] of the same compound?
Answer: 75.6 µM

Question: What about the TGI [11] of the same compound?
Answer: > 100 µM

Question: What about the TGI [12] of the same compound?
Answer: 30.7 µM

Question: What about the TGI [13] of the same compound?
Answer: 26 µM

Question: And the TGI [14]?
Answer: 29.9 µM

Question: What about the TGI [15] of the same compound?
Answer: 29.9 µM

Question: What about the TGI [16] of the same compound?
Answer: > 100 µM

Question: And the TGI [17]?
Answer: 57.9 µM

Question: And the TGI [18]?
Answer: 38.1 µM

Question: What about the TGI [19] of the same compound?
Answer: 32.1 µM

Question: And the TGI [20]?
Answer: 47.5 µM

Question: What about the TGI [21] of the same compound?
Answer: 32.6 µM

Question: And the TGI [22]?
Answer: 29.3 µM

Question: And the TGI [23]?
Answer: 32.1 µM

Question: What about the TGI [24] of the same compound?
Answer: 25.9 µM

Question: And the TGI [25]?
Answer: > 100 µM

Question: And the TGI [26]?
Answer: 39.5 µM

Question: What about the TGI [27] of the same compound?
Answer: 32.5 µM

Question: And the TGI [28]?
Answer: 40.3 µM

Question: What about the TGI [29] of the same compound?
Answer: 50.8 µM

Question: What about the TGI [30] of the same compound?
Answer: 32.7 µM

Question: What about the TGI [31] of the same compound?
Answer: 31.2 µM

Question: What about the TGI [32] of the same compound?
Answer: 33.3 µM

Question: And the TGI [33]?
Answer: 26.9 µM

Question: What about the TGI [34] of the same compound?
Answer: 34.4 µM

Question: And the TGI [35]?
Answer: 58.9 µM

Question: And the TGI [36]?
Answer: 60.9 µM

Question: And the TGI [37]?
Answer: 64.4 µM

Question: What about the TGI [38] of the same compound?
Answer: 22.5 µM

Question: What about the TGI [39] of the same compound?
Answer: 53.9 µM

Question: And the TGI [40]?
Answer: 37.7 µM

Question: And the TGI [41]?
Answer: 40.2 µM

Question: And the TGI [42]?
Answer: 31.9 µM

Question: And the TGI [43]?
Answer: 32 µM

Question: And the TGI [44]?
Answer: 30 µM

Question: What about the TGI [45] of the same compound?
Answer: 43.6 µM

Question: What about the TGI [46] of the same compound?
Answer: 30.7 µM

Question: And the TGI [47]?
Answer: 80.7 µM

Question: What about the TGI [48] of the same compound?
Answer: 75.3 µM

Question: And the TGI [49]?
Answer: > 100 µM

Question: What about the TGI [50] of the same compound?
Answer: 39.4 µM

Question: What about the TGI [51] of the same compound?
Answer: 42 µM

Question: What about the TGI [52] of the same compound?
Answer: > 100 µM

Question: What about the TGI [53] of the same compound?
Answer: 41.6 µM

Question: What about the TGI [54] of the same compound?
Answer: 35.1 µM

Question: And the TGI [55]?
Answer: 34.3 µM

Question: And the TGI [56]?
Answer: 37.6 µM
